Test results published in US9289398B2, “Methods for the production of functional protein from DNA having a nonsense mutation and the treatment of disorders associated therewith” (PTC Therapeutics, Inc., priority 2006, dated 2016).
Like-named read-outs stand apart in the source and are kept apart here.

Assays:
Assay type in all cases: in vivo, human
[1] = tested on: CFTR; experiment: Transepithelial potential difference (TEPD) chloride conductance, Phase 2 study in nonsense-mutation-mediated cystic fibrosis
Description: The measurement of transepithelial potential difference (TEPD), also known as nasal potential difference, provides a sensitive evaluation of sodium and chloride transport directly in secretory epithelial cells via assessment of transepithelial bioelectric properties (Knowles et al., 1981, N. Engl. J. Med. 305(25):1489-95; Knowles et al., 1995, Hum. Gene Ther. 6:445). TEPD is performed in each nostril using standardized techniques (Standaert et al., 2004, Ped. Pulm. 37:385-92). In the procedure, a small plastic catheter is used to assess electrical differences across the outer cell membrane of nasal mucosa cells in the nostril. TEPD values are expressed in millivolts, or mV. A chloride conductance equal to or more electrically negative than −5.0 mV is generally considered to be in the normal range. […] TEPD assessments can also be made on rectal epithelial cells and lower respiratory epithelial cells. Because of the role of the CFTR protein in transporting chloride ions across cell membranes, and because of the absence of this protein, cystic fibrosis patients have an abnormal TEPD chloride conductance. As an endpoint, TEPD has the advantage that it can detect chloride transport changes that are a quantitative integration of the presence, functional activity, and apical location of the CFTR in airway cells. Furthermore, it is a direct measure of CFTR activity that is not likely to be affected by supportive or palliative treatments for CF (with the possible exception of systemically administered aminoglycoside antibiotics). Of importance is evidence that TEPD values can correlate with the degree of pulmonary dysfunction and radiographic abnormality (Ho et al., 1997, Eur. Respir. J. 10(9):2018-22; Fajac et al., 1998, Eur. Respir. J. 12(6):1295-300; Sermet-Gaudelus et al., 2005, Am. J. Respit. Crit. Care Med. 171(9):1026-1031). […] Under baseline conditions, TEPD-assessed chloride channel activity is very unlikely to normalize spontaneously in patients with CF; any observed improvements in TEPD-assessed chloride channel activity are expected to specifically denote pharmacological activity of CFTR-correcting therapies. Accordingly, it has become the primary endpoint in Phase 1-2 pharmacological and gene replacement studies aimed at correcting CFTR dysfunction (Peckham et al., 1995, AJ. Clin Sci (London). 89(3):277-84; Wilschanski et al., 2003, N. Engl. J. Med. 349(15):1433-41).
(§1) 3-[5-(2-Fluoro-phenyl)-[1,2,4]oxadiazol-3-yl]-benzoic acid was provided in a formulation described herein.
Clinical endpoints were evaluated using the procedures set forth above. TEPD measurements were made prior to treatment and on days 14 and 28 of Cycle 1 and Cycle 2. Nasal mucosal curettage was collected from each nostril of each patient prior to treatment and on days 14 and 28 of Cycle 1 and Cycle 2. Pulmonary tests, including FEV1, FVC and MEF25-75, were measured prior to treatment, on day −1 of Cycle 2, on day 13 or 14 of Cycle 1 and day 13 or 14 of Cycle 2 in the study being conducted in Israel and the same parameters were measured prior to treatment and on day 13 or 14 of Cycle 2 in the study being conducted in the United States.
This is the average of the changes from the beginning to the end of the treatment period in TEPD chloride conductance within each study participant. For example, if the changes in TEPD chloride conductance within each of three participants were −7.0 mV, −2.0 mV and −9.0 mV, the mean change in TEPD chloride conductance among these participants would be −6.0 mV.
For purposes of the trials, a chloride conductance response is defined as a TEPD chloride conductance improvement of at least −5 mV. For example, in a patient with a TEPD chloride conductance value of +1.0 my at baseline and a TEPD chloride conductance value of −6.0 mV at the end of treatment, the TEPD chloride conductance improvement would be −7.0 mV, representing a chloride conductance response. […]

[2] = Safety, tolerability and compliance, DMD Phase 2 interim (6 patients)
Description: 3-[5-(2-Fluoro-phenyl)-[1,2,4]oxadiazol-3-yl]-benzoic acid is provided in a formulation described herein. Treatment is administered over 28 days for each treatment cohort. An initial cohort of patients are treated daily for 28 days with 3-[5-(2-fluoro-phenyl)-[1,2,4]oxadiazol-3-yl]-benzoic acid at a given dose level (e.g., 4-, 4-, and 8-mg/kg) TID. If the initial patients tolerate the drug, then a second cohort of patients receives 3-[5-(2-fluoro-phenyl)-[1,2,4]oxadiazol-3-yl]-benzoic acid at a higher dose level (e.g., 10-, 10-, and 20-mg/kg) TID. Thus, each patient receives a total of 84 doses of 3-[5-(2-fluoro-phenyl)-[1,2,4]oxadiazol-3-yl]-benzoic acid. After the end of 28 days of treatment, each patient is followed for an additional 28 days without treatment.
Six patients were administered 3-[5-(2-fluoro-phenyl)-[1,2,4]oxadiazol-3-yl]-benzoic acid TID in a regimen consisting of 4 mg/kg with breakfast, 4 mg/kg with lunch, and 8 mg/kg with supper, for a total daily dose of 16 mg/kg. All patients were ambulatory, but had characteristic signs and symptoms of DMD, including some degree of muscle dysfunction and elevated serum CK concentrations. […] These adverse events included diarrhea in 1 patient; abdominal pain in 1 patient; and flatulence in 2 patients. […] Treatment compliance was good, with patients taking >95% of the intended total drug treatment for 28 days at the lower dose level.

[3] = Pharmacokinetics, CF Phase 2 preliminary analysis; settings: for Cmax / AUC(0-t): both sexes, human, in vivo, oral; for AUC(0-t): read-out: AUC0-24
Source text: as §1
The 3-[5-(2-fluoro-phenyl)-[1,2,4]oxadiazol-3-yl]-benzoic acid interim PK parameters from these 15 patients are described in Table 17.

[4] = Higher dose level 10, 10, 20 mg/kg TID oral 14 days, 15 CF patients
[5] = Lower dose level 4, 4, 8 mg/kg TID oral 14 days, 15 CF patients
[6] = 6 DMD patients, 4, 4, 8 mg/kg TID
[7] = of 6 DMD patients, 4, 4, 8 mg/kg TID
[8] = 8 mg/kg, Cycle 1 lower dose 4, 4, 8 mg/kg, Day 1, N = 15, mean
[9] = 8 mg/kg, Cycle 1 lower dose 4, 4, 8 mg/kg, Day 14, N = 15, mean
[10] = 20 mg/kg, Cycle 2 higher dose 10, 10, 20 mg/kg, Day 1, N = 15, mean
[11] = 20 mg/kg, Cycle 2 higher dose 10, 10, 20 mg/kg, Day 14, N = 15, mean

## O=C(O)c1cccc(-c2noc(-c3ccccc3F)n2)c1 [3-[5-(2-fluoro-phenyl)-[1,2,4]oxadiazol-3-yl]-benzoic acid]
[1]; 15 CF patients
  TEPD chloride conductance in patients with different types of nonsense mutations within the CFTR gene: Improvements in TEPD chloride conductance
[1]; [4]
  Mean change in TEPD chloride conductance: Best of nostrils: −6.4 mV
  Mean change in TEPD chloride conductance: Mean of both nostrils: −4.4 mV
[1]; [5]
  Mean change in TEPD chloride conductance: Best of nostrils: −9.0 mV
  Mean change in TEPD chloride conductance: Mean of both nostrils: −6.7 mV
[1]; lower 4, 4, 8 mg/kg versus higher 10, 10, 20 mg/kg
  Treatment effects at the lower and the higher dose levels (TEPD chloride conductance): not statistically significant
[2]; 6 DMD patients
  Discontinuation of treatment due to an adverse event: No patient discontinued treatment
[2]; [6]
  Physical examinations, vital sign measurements, electrocardiograms: no safety concerns
  Serum liver enzymes, bilirubin, creatinine, blood urea nitrogen: No clinically significant elevations
[2]; 6 DMD patients, 4, 4, 8 mg/kg TID, 28 days
  Serious drug-related adverse events: No serious drug-related adverse events
[2]; 6 DMD patients, 4, 4, 8 mg/kg TID, preliminary
  Severity of potentially drug-related adverse events: mild
[2]; [7]
  Abdominal pain, number of patients: 1
  Diarrhea, number of patients: 1
  Flatulence, number of patients: 2
[3]; 15 CF patients
  Differences in PK parameters by gender: No differences
[3]; Cycle 1 lower dose 4, 4, 8 mg/kg, Day 1, N = 15, mean
  Cmin: 1600 ng/mL
[3]; Cycle 1 lower dose 4, 4, 8 mg/kg, Day 14, N = 15, mean
  Cmin: 1900 ng/mL
[3]; Cycle 2 higher dose 10, 10, 20 mg/kg, Day 1, N = 15, mean
  Cmin: 5000 ng/mL
[3]; Cycle 2 higher dose 10, 10, 20 mg/kg, Day 14, N = 15, mean
  Cmin: 6500 ng/mL
[3]; [8]
  Cmax: 16000 ng/mL
  AUC(0-t): 145 µg·h/mL
[3]; [9]
  Cmax: 13000 ng/mL
  AUC(0-t): 124 µg·h/mL
[3]; [10]
  Cmax: 41000 ng/mL
  AUC(0-t): 435 µg·h/mL
[3]; [11]
  Cmax: 36000 ng/mL
  AUC(0-t): 417 µg·h/mL
